Source: US9708368B2, “Linear peptide antibiotics” (priority 2012, dated 2017)
In brackets after ≈: the same amount, converted by molar mass. Square brackets hold non-standard residues; d marks the D form. Peptide text beside a SMILES is read from it. * marks the point of attachment. ξ: configuration not given here. boroAla((+)-pinanediol) = C[C@H](N*)B1O[C@@H]2C[C@@H]3C[C@@H](C3(C)C)[C@]2(C)O1; Biphenylcarbonyl(4'-Bu) = CCCCc1ccc(-c2ccc(C(=O)*)cc2)cc1; X1 = C[C@H](N*)B1OC2C[C@@H]3C[C@@H](C3(C)C)[C@]2(C)O1; Benzoyl(4-(4-Cl-Ph)) = O=C(c1ccc(-c2ccc(Cl)cc2)cc1)*; Benzoyl(4-octyl) = CCCCCCCCc1ccc(C(=O)*)cc1; Pro(4S-NH2) = N[C@@H]1CN[C@H](C(=O)O)C1; NMeT = CN[C@H](C(=O)O)[C@@H](C)O; Thr(3ξ) = CC(O)[C@H](N)C(=O)O; Lauroyl = CCCCCCCCCCCC(=O)*; NMeV = CN[C@H](C(=O)O)C(C)C; Orn = NCCC[C@H](N)C(=O)O; Dab = NCC[C@H](N)C(=O)O; Abu = CC[C@H](N)C(=O)O; Dap = NC[C@H](N)C(=O)O; Ac3c = NC1(C(=O)O)CC1; βAla = NCCC(=O)O

Tests used:
[1] = target: S. aureus SPase (Staphylococcus aureus, UniProt P0A070); experiment: biochemical
[2] = test system: Escherichia coli strain MC4100 IMP-4213, which harbors an LptD mutation; conditions: Method B; E. coli MC4100 IMP-4213 (LptD mutation); 35° C., 22 hours
Outline: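 Two-fold serial dilutions of compound inoculated at final OD600 0.0005, incubated static at 35 °C for 22 h, and growth read visually.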

[3] = test system: methicillin resistant Staphylococcus aureus (MRSA) strain USA300 (NRS384); conditions: Method B, 35° C., 22 hours
[4] = target: E. coli SPase (Escherichia coli, UniProt P00803); experiment: Biochemical SPase activity assay (fluorogenic peptide substrate), E. coli enzyme

Compound | IC50 [1] | MIC (μg/mL) E. coli [2] | MIC (μg/mL) S. aureus [3] | IC50 [4]
C[C@H](NC(=O)[C@H](CCCCN)NC(=O)[C@H](C)NC(=O)[C@H](CCCCN)NC(=O)[C@H](CN)NC(=O)c1ccc(-c2ccc(Cl)cc2)cc1)B1OC2C[C@@H]3C[C@@H](C3(C)C)[C@]2(C)O1 (some centres unmarked) [Compound 168] ({Benzoyl(4-(4-Cl-Ph))}-[Dap]KAK-X1) | 250 nM | 1 µg/mL (≈ 1.17 µM) | 0.79 µg/mL (≈ 0.928 µM) | 5.4 nM
CCCCc1ccc(-c2ccc(C(=O)N[C@@H](CN)C(=O)N[C@H](C(=O)N[C@@H](C)C(=O)N[C@@H](CCCCN)C(=O)N[C@@H](C)B3O[C@@H]4C[C@@H]5C[C@@H](C5(C)C)[C@]4(C)O3)[C@@H](C)O)cc2)cc1 [Compound 149] ({Biphenylcarbonyl(4'-Bu)}-[Dap]TAK-{boroAla((+)-pinanediol)}) | 129 nM | 0.31 µg/mL (≈ 0.366 µM) | 0.28 µg/mL (≈ 0.331 µM) | 3.9 nM
CCCCc1ccc(-c2ccc(CN[C@@H](CCN)C(=O)N[C@H](C(=O)N[C@@H](C)C(=O)N[C@@H](CCCCN)C(=O)N[C@@H](C)B3OC4C[C@@H]5C[C@@H](C5(C)C)[C@]4(C)O3)[C@@H](C)O)cc2)cc1 (some centres unmarked) [Compound 266] | 160 nM | 1 µg/mL (≈ 1.18 µM) | 0.5 µg/mL (≈ 0.591 µM) | 22 nM
CCCCc1ccc(-c2ccc(C(=O)N[C@@H](CCCNC(=N)N)C(=O)N[C@H](C(=O)N[C@@H](C)C(=O)N[C@@H](CCCCN)C(=O)N[C@@H](C)B3O[C@@H]4C[C@@H]5C[C@@H](C5(C)C)[C@]4(C)O3)[C@@H](C)O)cc2)cc1 [Compound 174] ({Biphenylcarbonyl(4'-Bu)}-RTAK-{boroAla((+)-pinanediol)}) | 130 nM | 0.5 µg/mL (≈ 0.546 µM) | 0.25 µg/mL (≈ 0.273 µM) | 59 nM
CCCCc1ccc(-c2ccc(C(=O)N[C@@H](CCCCN)C(=O)NC3(C(=O)N[C@@H](C)C(=O)N[C@@H](CCCCN)C(=O)N[C@@H](C)B4OC5C[C@@H]6C[C@@H](C6(C)C)[C@]5(C)O4)CC3)cc2)cc1 (some centres unmarked) [Compound 137] ({Biphenylcarbonyl(4'-Bu)}-K[Ac3c]AK-X1) | 26000 nM | 23 µg/mL (≈ 26.4 µM) | 16 µg/mL (≈ 18.4 µM) | 1200 nM
CCCCCCCCCCCC(=O)NCCC(=O)N[C@@H](CCCCN)C(=O)N[C@H](C(=O)N[C@@H](C)C(=O)N[C@@H](CC(N)=O)C(=O)N[C@@H](C)B1OC2C[C@@H]3C[C@@H](C3(C)C)[C@]2(C)O1)[C@@H](C)O (some centres unmarked) [Compound 202] ({Lauroyl-βAla}-KTAN-X1) | 3.5 nM | 23 µg/mL (≈ 25.8 µM) | 1.1 µg/mL (≈ 1.23 µM) | 7.1 nM
CCCCc1ccc(-c2ccc(CNCCCC(=O)N[C@H](C(=O)N[C@@H](C)C(=O)N[C@@H](CCCCN)C(=O)N[C@@H](C)B3O[C@@H]4C[C@@H]5C[C@@H](C5(C)C)[C@]4(C)O3)[C@@H](C)O)cc2)cc1 [Compound 271] | 16 nM | 11 µg/mL (≈ 13.2 µM) | 0.5 µg/mL (≈ 0.602 µM) | 200 nM
CCCCCCCCc1ccc(C(=O)N[C@@H](CCN)C(=O)N[C@H](C(=O)N[C@@H](C)C(=O)N[C@@H](CCCCN)C(=O)N[C@@H](C)B2OC3C[C@@H]4C[C@@H](C4(C)C)[C@]3(C)O2)[C@@H](C)O)cc1 (some centres unmarked) [Compound 232] ({Benzoyl(4-octyl)}-[Dab]TAK-X1) | 140 nM | 0.25 µg/mL (≈ 0.298 µM) | 0.31 µg/mL (≈ 0.369 µM) | 5 nM
CCCCc1ccc(-c2ccc(C(=O)N[C@@H](CN)C(=O)N[C@@H](CN)C(=O)N[C@@H](C)C(=O)N[C@@H](CC(C)C)C(=O)N[C@@H](C)B3OC4C[C@@H]5C[C@@H](C5(C)C)[C@]4(C)O3)cc2)cc1 (some centres unmarked) [Compound 170] ({Biphenylcarbonyl(4'-Bu)}-[Dap][Dap]AL-X1) | 530 nM | 0.4 µg/mL (≈ 0.49 µM) | 2 µg/mL (≈ 2.45 µM) | 10 nM
CCCCc1ccc(-c2ccc(C(=O)N[C@@H](CCCN)C(=O)N[C@H](C(=O)N[C@@H](CC)C(=O)N[C@@H](CCCCN)C(=O)N[C@@H](C)B3OC4C[C@@H]5C[C@@H](C5(C)C)[C@]4(C)O3)C(C)O)cc2)cc1 (some centres unmarked) [Compound 150] ({Biphenylcarbonyl(4'-Bu)}-[Orn][Thr(3ξ)][Abu]K-X1) | 270 nM | 0.5 µg/mL (≈ 0.563 µM) | 0.3 µg/mL (≈ 0.338 µM) | 6 nM
CCCCc1ccc(-c2ccc(CN3CCC(C(=O)N[C@H](C(=O)N[C@@H](C)C(=O)N[C@@H](CCCCN)C(=O)N[C@@H](C)B4OC5C[C@@H]6C[C@@H](C6(C)C)[C@]5(C)O4)[C@@H](C)O)CC3)cc2)cc1 (some centres unmarked) [Compound 273] | 9.8 nM | 8 µg/mL (≈ 9.34 µM) | 0.088 µg/mL (≈ 0.103 µM) | 470 nM
CCCCc1ccc(-c2ccc(C(=O)N[C@@H](CCCCN)C(=O)N[C@H](C(=O)N[C@@H](CC)C(=O)N[C@@H](CC(N)=O)C(=O)N[C@@H](C)B3O[C@@H]4C[C@@H]5C[C@@H](C5(C)C)[C@]4(C)O3)[C@@H](C)O)cc2)cc1 [Compound 144] ({Biphenylcarbonyl(4'-Bu)}-KT[Abu]N-{boroAla((+)-pinanediol)}) | 36 nM | 0.25 µg/mL (≈ 0.282 µM) | 0.25 µg/mL (≈ 0.282 µM) | 18 nM
CCCCc1ccc(-c2ccc(C(=O)N[C@@H](Cc3c[nH]c4ccccc34)C(=O)N[C@H](C(=O)N[C@@H](C)C(=O)N[C@@H](CCCCN)C(=O)N[C@@H](C)B3OC4C[C@@H]5C[C@@H](C5(C)C)[C@]4(C)O3)[C@@H](C)O)cc2)cc1 (some centres unmarked) [Compound 138] ({Biphenylcarbonyl(4'-Bu)}-WTAK-X1) | 1100 nM | >64 µg/mL | 5 µg/mL (≈ 5.29 µM) | 1000 nM
CCCCc1ccc(-c2ccc(C(=O)NCCC(=O)N[C@@H](CCCCN)C(=O)N[C@@H](CCCCN)C(=O)N[C@@H](C)C(=O)N[C@@H](CC(N)=O)C(=O)N[C@@H](C)B3OC4C[C@@H]5C[C@@H](C5(C)C)[C@]4(C)O3)cc2)cc1 (some centres unmarked) [Compound 197] ({Biphenylcarbonyl(4'-Bu)-βAla}-KKAN-X1) | 6.2 nM | 1 µg/mL (≈ 1.03 µM) | 0.3 µg/mL (≈ 0.309 µM) | 11 nM
CCCCc1ccc(-c2ccc(C(=O)N[C@@H]3CN[C@H](C(=O)N[C@H](C(=O)N[C@@H](C)C(=O)N[C@@H](CCCCN)C(=O)N[C@@H](C)B4OC5C[C@@H]6C[C@@H](C6(C)C)[C@]5(C)O4)[C@@H](C)O)C3)cc2)cc1 (some centres unmarked) [Compound 268] | 81 nM | 16 µg/mL (≈ 18.4 µM) | 1 µg/mL (≈ 1.15 µM) | 1600 nM
CCCCc1ccc(-c2ccc(C(=O)N3C[C@@H](N)C[C@H]3C(=O)N3CCC[C@H]3C(=O)N[C@@H](C)C(=O)N[C@@H](CCCCN)C(=O)N[C@@H](C)B3OC4C[C@@H]5C[C@@H](C5(C)C)[C@]4(C)O3)cc2)cc1 (stereo partly drawn) [Compound 181] ({Biphenylcarbonyl(4'-Bu)}-[Pro(4S-NH2)]PAK-X1) | 18 nM | 0.5 µg/mL (≈ 0.576 µM) | 0.4 µg/mL (≈ 0.461 µM) | 5.4 nM
CCCCc1ccc(-c2ccc(C(=O)N[C@H](CO)C(=O)N[C@H](C)C(=O)NCC(=O)N(C)[C@H](C(=O)N[C@@H](C)C(=O)N[C@@H](CC(N)=O)C(=O)N[C@@H](C)B3OC4C[C@@H]5C[C@@H](C5(C)C)[C@]4(C)O3)[C@@H](C)O)cc2)cc1 (some centres unmarked) [Compound 226] ({Biphenylcarbonyl(4'-Bu)}-[dS][dA]G[NMeT]AN-X1) | 140 nM | 25 µg/mL (≈ 25.6 µM) | 2.8 µg/mL (≈ 2.87 µM) | 440 nM
CCCCc1ccc(-c2ccc(C(=O)N[C@H](CO)C(=O)N[C@H](C)C(=O)NCC(=O)N(C)[C@H](C(=O)N[C@@H](C)C(=O)N[C@@H](CC(N)=O)C(=O)N[C@@H](C)B3OC4C[C@@H]5C[C@@H](C5(C)C)[C@]4(C)O3)C(C)C)cc2)cc1 (some centres unmarked) [Compound 230] ({Biphenylcarbonyl(4'-Bu)}-[dS][dA]G[NMeV]AN-X1) | 150 nM | 20 µg/mL (≈ 20.6 µM) | 2 µg/mL (≈ 2.06 µM) | 390 nM
CCCCc1ccc(-c2ccc(C(=O)N[C@@H](CN)C(=O)N[C@@H](CCC(=O)N[C@H](CC(=O)O)C(=O)O)C(=O)N[C@@H](C)C(=O)N[C@@H](CCCCN)C(=O)N[C@@H](C)B3OC4C[C@@H]5C[C@@H](C5(C)C)[C@]4(C)O3)cc2)cc1 (some centres unmarked) [Compound 259] ({Biphenylcarbonyl(4'-Bu)}-[Dap]E(dD)AK-X1) | 32 nM | 4 µg/mL (≈ 4.04 µM) | 11 µg/mL (≈ 11.1 µM) | 2.6 nM
CC(C)C[C@H](NC(=O)[C@H](C)NC(=O)[C@H](CCN)NC(=O)[C@H](CCN)NC(=O)c1ccc(-c2ccc(Cl)cc2)cc1)C(=O)N[C@@H](C)B1OC2C[C@@H]3C[C@@H](C3(C)C)[C@]2(C)O1 (some centres unmarked) [Compound 173] ({Benzoyl(4-(4-Cl-Ph))}-[Dab][Dab]AL-X1) | 550 nM | 2 µg/mL (≈ 2.43 µM) | 2 µg/mL (≈ 2.43 µM) | 69 nM
